One compound from patent US11560368B2, “Apoptosis signal-regulating kinase 1 inhibitors and methods of use thereof” (Enanta Pharmaceuticals, Inc., priority 2017, dated 2023) can be followed below.

For this experiment, the target named is ASK1 kinase (Homo sapiens (Human), UniProt Q99683). In words: ASK1 kinase inhibition, HTRF KinEASE-STK TR-FRET assay. The conditions noted are these: 5 nM ASK1, 1 uM STK3 peptide substrate, 100 uM ATP, 3 hours. The experiment is classed as biochemical. The procedure:
The ability (IC50) of compounds to inhibit ASK1 kinase activity was determined by HTRF® KinEASE™ Assay System.
ASK1 was purchased from Thermofisher (Catalogue # PV4011), ATP was purchased from Sigma (Catalogue # A7699), HTRF® KinEASE™ Assay System was obtained from Cisbio (Bedford, Mass.). ½ A Area plate was purchased from Perkin Elmer (Catalogue # #6005560). HTRF® KinEASE™-STK is a generic method for measuring serine/threonine kinase activities using a time-resolved fluorescence resonance energy transfer (TR-FRET) immunoassay. The IC50 value for each compound was determined in the presence of compound (various concentration from 0 to 10 μM) and a fixed amount of ATP and peptide substrates. The test compound, 1 uM STK3 peptide substrate, and 5 nM of ASK1 kinase are incubated with kinase reaction buffer containing 50 mM HEPES pH 7.5, 0.01% BRU-35, 10 mM MgCl2, and 1 mM EGTA for 30 minutes. 100 uM ATP is added to start kinase reaction and incubated for 3 hours. The STK3-antibody labeled with Eu^3+-Cryptate and 125 nM streptavidin-XL665 are mixed in a single addition with stop reagents provided by the Cisbio kit used to stop the kinase reaction. Fluorescence is detected using an Envision Multilabeled 2014 reader from PerkinElmer. The Fluorescence is measured at 615 nm (Cryptate) and 665 nm (XL665) and a ratio of 665 nm/615 nm is calculated for each well. […] IC50 was determined by XLfit 5.3. […]
A general note: TR-FRET usually uses a lanthanide donor and a delayed reading to cut background.

pIC50: −log10 of the molar value.

ASK1 kinase, sequence (Q99683 whole entry): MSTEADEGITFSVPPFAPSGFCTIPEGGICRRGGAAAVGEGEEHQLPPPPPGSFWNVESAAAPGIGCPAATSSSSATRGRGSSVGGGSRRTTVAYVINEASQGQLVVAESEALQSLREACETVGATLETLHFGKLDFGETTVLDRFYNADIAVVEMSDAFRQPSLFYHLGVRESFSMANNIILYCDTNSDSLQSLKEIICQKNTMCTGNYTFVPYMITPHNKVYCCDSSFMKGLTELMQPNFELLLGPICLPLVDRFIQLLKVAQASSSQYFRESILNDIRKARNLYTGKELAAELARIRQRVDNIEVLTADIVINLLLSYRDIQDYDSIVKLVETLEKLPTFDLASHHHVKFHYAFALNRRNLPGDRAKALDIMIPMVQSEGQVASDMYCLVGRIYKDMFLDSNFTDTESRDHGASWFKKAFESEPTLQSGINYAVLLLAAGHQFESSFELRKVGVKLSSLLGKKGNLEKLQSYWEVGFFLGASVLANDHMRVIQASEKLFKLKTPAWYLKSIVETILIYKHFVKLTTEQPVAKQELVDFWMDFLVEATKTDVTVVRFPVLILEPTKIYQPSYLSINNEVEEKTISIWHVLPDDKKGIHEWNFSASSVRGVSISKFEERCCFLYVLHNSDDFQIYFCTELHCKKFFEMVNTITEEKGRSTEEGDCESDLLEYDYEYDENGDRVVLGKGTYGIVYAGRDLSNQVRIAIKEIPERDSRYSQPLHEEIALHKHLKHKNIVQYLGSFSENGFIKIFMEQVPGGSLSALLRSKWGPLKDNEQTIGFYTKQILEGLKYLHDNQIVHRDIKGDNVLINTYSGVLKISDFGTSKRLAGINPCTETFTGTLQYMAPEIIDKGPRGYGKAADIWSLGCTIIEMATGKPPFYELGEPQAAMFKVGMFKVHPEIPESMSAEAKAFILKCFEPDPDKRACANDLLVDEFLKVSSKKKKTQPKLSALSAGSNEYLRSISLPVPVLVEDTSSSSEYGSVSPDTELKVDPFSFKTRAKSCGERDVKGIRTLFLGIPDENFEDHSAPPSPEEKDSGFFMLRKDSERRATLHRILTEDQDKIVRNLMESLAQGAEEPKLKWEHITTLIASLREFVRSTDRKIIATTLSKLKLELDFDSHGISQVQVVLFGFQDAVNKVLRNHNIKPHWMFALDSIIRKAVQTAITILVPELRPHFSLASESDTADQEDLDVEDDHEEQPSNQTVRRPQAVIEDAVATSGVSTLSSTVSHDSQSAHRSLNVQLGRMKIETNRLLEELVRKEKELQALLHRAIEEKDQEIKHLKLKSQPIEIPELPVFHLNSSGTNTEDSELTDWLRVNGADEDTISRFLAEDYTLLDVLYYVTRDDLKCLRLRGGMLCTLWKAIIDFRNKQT

`Cc1cc(F)c(C(=O)Nc2cccc(-c3nnnn3C(C)C)n2)cc1-n1cnc(C(F)(F)F)c1` [Example 2b]: the pIC50 (usually the negative decadic logarithm of the IC50, by convention in mol/L) was 6.00 to 7.00.
